Data set [1] has as its system several laboratory strains and primary isolates. Conditions: cited from earlier work.
The subject of data set [2] is TZM-bl cells. Put plainly: Cytotoxicity in TZM-bl cells. The data set is classed as cell-based. Conditions: at the dose given as CC50 bound.
Data set [3] has as its system MT-2 cells. Put plainly: Cytotoxicity in MT-2 cells. The data set is classed as cell-based, Human. Conditions: for % toxicity at that dose (number in parenthesis), MT-2 cells: at the dose given as CC50 bound.

Where a name gives a salt, the structure may show the parent alone.

Consider eight compounds from PMC3372086 (Journal of Medicinal Chemistry, 2012).

For `CC1(C)CC(NC(=O)C(=O)Nc2ccc(Br)cc2)CC(C)(C)N1` [compound 2], the “potency against several laboratory strains and primary isolates” value in data set [1] is reported as “low micromolar potency”.

For `Cc1nc(C(NC(=O)C(=O)Nc2ccc(F)cc2)C2CCCCN2)sc1CO` (stereo not drawn) [compound 25, N^1-(4-fluorophenyl)-N^2-((5-(hydroxymethyl)-4-methylthiazol-2-yl)(piperidin-2-yl)methyl)oxalamide.HCl], the “% toxicity at that dose (number in parenthesis), TZM-bl cells” value (from here on “% toxicity at that dose … TZM-bl cells”) in data set [2] came out at 0%.

On to `Cc1ccc(NC(=O)C(=O)NC(c2nc(C)c(CO)s2)C2CCCCN2)cc1F` (stereo not drawn) [compound 28, N^1-(3-fluoro-4-methylphenyl)-N^2-((5-(hydroxymethyl)-4-methylthiazol-2-yl)(piperidin-2-yl)methyl)oxalamide.HCl], for which the “% toxicity at that dose … TZM-bl cells” value in data set [2] came to 0%.

On to `CC1(C)CC(NC(=O)C(=O)Nc2ccc(Cl)cc2)CC(C)(C)N1` [compound 1], for which, in data set [1], the “potency against several laboratory strains and primary isolates” value was “low micromolar potency”.

As for `Cc1nc(C(NC(=O)C(=O)Nc2ccc(F)c(F)c2)C2CCCCN2)sc1CO` (stereo not drawn) [compound 22, N^1-(3,4-difluorophenyl)-N^2-((5-(hydroxymethyl)-4-methylthiazol-2-yl)(piperidin-2-yl)methyl)oxalamide.HCl], the “% toxicity at that dose … TZM-bl cells” value in data set [2] came to 0%.

On to `Cc1nc(C(NC(=O)C(=O)Nc2ccc(F)c(Cl)c2)C2CCCCN2)sc1CO` (stereo not drawn) [compound 24, N^1-(3-chloro-4-fluorophenyl)-N^2-((5-(hydroxymethyl)-4-methylthiazol-2-yl)(piperidin-2-yl)methyl)oxalamide.2HCl], for which the “% toxicity at that dose … TZM-bl cells” value in data set [2] is 0%.

With `Cc1nc(C(NC(=O)C(=O)Nc2ccc(Cl)cc2)C2CCCCN2)sc1CCO.O=CO` (stereo not drawn) [compound 30, N^1-(4-chlorophenyl)-N^2-((5-(2-hydroxyethyl)-4-methylthiazol-2-yl)(piperidin-2-yl)methyl)oxalamide.HCOOH], the “% toxicity at that dose (number in parenthesis), MT-2 cells” value in data set [3] was determined as 0%. In addition, the CC50 – broadly, the concentration at which the toxic effect on the cells reaches its halfway point – in data set [3] (read-out: MT-2 Cells CC50 (μM ± SD), MT-2 cells, XTT, 4 days) is above 62 µM.

In the case of `Cc1nc(C(NC(=O)C(=O)Nc2ccc(Cl)cc2)C2CCCCN2)sc1CCO` (stereo not drawn) [compound 9, N^1-(4-chlorophenyl)-N^2-((5-(2-hydroxyethyl)-4-methylthiazol-2-yl)(piperidin-2-yl)methyl)oxalamide.HCOOH], in data set [3], the “% toxicity at that dose (number in parenthesis), MT-2 cells” value was determined as 0%.
